Test results published in US7312330B2, “Bicycloheteroarylamine compounds as ion channel ligands and uses thereof” (Renovis, Inc., priority 2003, dated 2007).

Molecular target: hVR1 (Homo sapiens, UniProt Q8NER1)
Assay: Calcium imaging assay (Fura2) of VR1 antagonists, proton stimulation
Format: cell-based
Details: HEK 293 cells expressing hVR1; for % Inhibition @ 1 μM: calcium ion influx induced by proton stimulation (pH 5.7); for IC50: calcium ion influx induced by proton stimulation
Source text: VR1 protein is a heat-gated cation channel that exchanges about 10 calcium ions for every sodium ion resulting in neuronal membrane depolarization and elevated intracellular calcium ion levels. Therefore the functional activity of compounds at the VR1 receptor may be determined by measuring changes in intracellular calcium levels in 293 cells expressing capsaicin-insensitive VR1 receptor variants. A dual wavelength ratiometric dye, Fura2, was used as an indicator of relative levels of calcium ions in a 96 well format using a bench top scanning fluorometer with integrated fluidics and temperature control (Flex Station, Molecular Devices).
A dual wavelength ratiometric dye, Fura2, was used as an indicator of relative levels of [Ca2+] in a 96 well format using a bench top scanning fluorometer with integrated fluidics and temperature control (Flex Station, Molecular Devices).
HEK 293 cells expressing hVR1 were grown on PDL coated 96-well black-walled plates, in the presence of a DMEM medium containing 5% Penstrep, 5% Glutamax, 200 ug/mL Hygromycin, 5 μg/mL Blasticide and 10% heat inactivated FBS. Prior to assay, the cells were loaded with 5 μg/mL Fura2 in normal saline solution at 37° C. for 40 minutes. Cells were then washed with normal saline to remove the dye.
The assay consists of two stages; a pre-treatment phase followed by a treatment phase. In the pretreatment phase, 50 μl of a compound solution was added to the cells. Immediately following, 50 μl of the test compound in the presence of agonist (a saline solution plus 10 mM citric acid bufferd to pH 5.7 with HCl) was added. Fura2 was excited at […] to indicate relative calcium concentration. Changes in wavelength measurements were made throughout the course of the experiment in 4 second intervals over a period of 3 minutes. The fluorescence ratio from the excitations at […] was recorded for analysis. Responses were measured as peak fluorescence ratio after compound-agonist addition minus baseline fluorescence ratio prior to treatment and were calculated for each concentration tested using the SoftMaxPro software. Data was expressed as percentage inhibition calculated as follows: […]
A dose response curve was then determined, from which the ID50 of each compound was calculated.

Chain of hVR1 (Q8NER1 whole entry): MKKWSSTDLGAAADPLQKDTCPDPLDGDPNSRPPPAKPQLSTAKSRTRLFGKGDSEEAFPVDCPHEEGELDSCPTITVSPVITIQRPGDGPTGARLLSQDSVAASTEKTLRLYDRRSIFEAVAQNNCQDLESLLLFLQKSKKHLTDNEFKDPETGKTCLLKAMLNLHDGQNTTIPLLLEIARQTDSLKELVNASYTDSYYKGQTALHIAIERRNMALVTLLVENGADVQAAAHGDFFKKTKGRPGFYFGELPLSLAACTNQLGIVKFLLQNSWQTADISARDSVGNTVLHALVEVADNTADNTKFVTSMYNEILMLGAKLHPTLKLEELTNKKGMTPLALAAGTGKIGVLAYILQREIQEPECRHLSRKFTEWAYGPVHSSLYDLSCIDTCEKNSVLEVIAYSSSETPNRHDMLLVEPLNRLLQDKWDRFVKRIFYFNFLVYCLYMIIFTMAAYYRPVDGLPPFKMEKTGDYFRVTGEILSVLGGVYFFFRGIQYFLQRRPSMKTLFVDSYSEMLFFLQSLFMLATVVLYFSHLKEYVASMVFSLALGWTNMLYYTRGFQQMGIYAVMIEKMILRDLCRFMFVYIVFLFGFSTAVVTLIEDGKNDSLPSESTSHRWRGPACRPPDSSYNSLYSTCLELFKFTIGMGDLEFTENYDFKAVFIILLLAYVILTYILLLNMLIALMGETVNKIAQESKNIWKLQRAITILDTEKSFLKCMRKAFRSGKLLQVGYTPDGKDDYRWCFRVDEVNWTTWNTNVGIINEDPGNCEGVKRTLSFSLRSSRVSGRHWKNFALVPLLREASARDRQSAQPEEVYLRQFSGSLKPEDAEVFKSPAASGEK

Row | Structure (SMILES) | % Inhibition @ 1 μM | IC50 [nM]
1 | CC(C)(C)c1ccc(Nc2ncnc3c2CCN(c2ncccc2C(F)(F)F)C3)cc1.Cl [Example 4, N-(4-tert-Butylphenyl)-7-(3-(trifluoromethyl)pyridin-2-yl)-5,6,7,8-tetrahydropyrido[3,4-d]pyrimidin-4-amine hydrochloride] | ++++ (compound exhibited 76% or greater inhibition of calcium ion influx induced by proton stimulation) | < 100
2 | COCc1nc2c(c(Nc3ccc(C(C)(C)C)cc3)n1)CCN(c1ncccc1C(F)(F)F)C2.Cl [Example 6, (4-tert-Butyl-phenyl)-[2-methoxymethyl-7-(3-trifluoromethyl-pyridin-2-yl)-5,6,7,8-tetrahydro-pyrido[3,4-d]pyrimidin-4-yl]-amine hydrochloride] | ++++ (compound exhibited 76% or greater inhibition of calcium ion influx induced by proton stimulation) | < 100
3 | Fc1cccnc1N1CCc2c(ncnc2Nc2ccc(C(F)(F)F)cc2)C1 [Example 11, [7-(3-Fluoro-pyridin-2-yl)-5,6,7,8-tetrahydro-pyrido[3,4-d]pyrimidin-4-yl]-(4-trifluoromethyl-phenyl)-amine] | ++++ (compound exhibited 76% or greater inhibition of calcium ion influx induced by proton stimulation) | 101 to 500
4 | CC(C)(C)c1ccc(Nc2nc(CN3CCOCC3)nc3c2CCN(c2ncccc2Cl)C3)cc1 [Example 13, (4-tert-Butyl-phenyl)-[7-(3-chloro-pyridin-2-yl)-2-morpholin-4-ylmethyl-5,6,7,8-tetrahydro-pyrido[3,4-d]pyrimidin-4-yl]-amine] | ++ (compound exhibited 26-50% inhibition of calcium ion influx induced by proton stimulation) | 
5 | CS(=O)(=O)c1cccnc1N1CCc2c(ncnc2Nc2ccc(OC(F)F)cc2)C1 [Example 14, N-(4-(Difluoromethoxy)phenyl)-5,6,7,8-tetrahydro-7-(3-(methylsulfonyl)pyridin-2-yl)pyrido[3,4-d]pyrimidin-4-amine] | + (compound exhibited 0-25% inhibition of calcium ion influx induced by proton stimulation) | 
6 | FC(F)Oc1ccc(Nc2ncnc3c2CCN(c2ncccc2Cl)C3)cc1 [Example 15, 7-(3-Chloropyridin-2-yl)-N-(4-(difluoromethoxy)phenyl)-5,6,7,8-tetrahydropyrido[3,4-d]pyrimidin-4-amine] | +++ (compound exhibited 51-75% inhibition of calcium ion influx induced by proton stimulation) | 101 to 500
7 | CC(C)S(=O)(=O)c1cccnc1N1CCc2c(ncnc2Nc2ccc(C(F)(F)F)cc2)C1 [Example 16, N-(4-(Trifluoromethyl)phenyl)-5,6,7,8-tetrahydro-7-(3-(isopropylsulfonyl)pyridin-2-yl)pyrido[3,4-d]pyrimidin-4-amine] |  | > 1000
8 | Nc1nc2c(c(Nc3ccc(C(F)(F)F)cc3)n1)CCN(c1ncccc1Cl)C2 [Example 17, 7-(3-Chloro-pyridin-2-yl)-N^4-(4-trifluoromethyl-phenyl)-5,6,7,8-tetrahydro-pyrido[3,4-d]pyrimidine-2,4-diamine] | ++++ (compound exhibited 76% or greater inhibition of calcium ion influx induced by proton stimulation) | 
9 | Clc1cccnc1N1CCc2c(ncnc2Nc2ccccc2)C1 [Example 18, 7-(3-Chloropyridin-2-yl)-N-(phenyl)-5,6,7,8-tetrahydropyrido[3,4-d]pyrimidin-4-amine] | + (compound exhibited 0-25% inhibition of calcium ion influx induced by proton stimulation) | > 1000
10 | Fc1ccc(Nc2ncnc3c2CCN(c2ncccc2Cl)C3)cc1 [Example 19, 7-(3-Chloropyridin-2-yl)-N-(4-fluorophenyl)-5,6,7,8-tetrahydropyrido[3,4-d]pyrimidin-4-amine] | + (compound exhibited 0-25% inhibition of calcium ion influx induced by proton stimulation) | > 1000
11 | CS(=O)(=O)c1cccnc1N1CCc2c(ncnc2Nc2ccc(C(F)(F)F)nc2)C1 [Example 21] | +++ (compound exhibited 51-75% inhibition of calcium ion influx induced by proton stimulation) | 101 to 500
12 | CSc1nc2c(c(Nc3ccc(C(F)(F)F)cc3)n1)CCN(c1ncccc1Cl)C2 [Example 24, [7-(3-Chloro-pyridin-2-yl)-2-methylsulfanyl-5,6,7,8-tetrahydro-pyrido[3,4-d]pyrimidin-4-yl]-(4-trifluoromethyl-phenyl)-amine] |  | 101 to 500
13 | COc1nc2c(c(Nc3ccc(C(F)(F)F)cc3)n1)CCN(c1ncccc1Cl)C2 [Example 27, 7-(3-Chloropyridin-2-yl)-N-(4-(trifluoromethyl)phenyl)-5,6,7,8-tetrahydro-2-methoxypyrido[3,4-d]pyrimidin-4-amine] |  | 101 to 500
14 | Cc1cccc(N2CCc3c(ncnc3Nc3ccc4c(c3)OCCO4)C2)c1 [Example 36, (2,3-Dihydro-benzo[1,4]dioxin-6-yl)-(7-m-tolyl-5,6,7,8-tetrahydro-pyrido[3,4-d]pyrimidin-4-yl)-amine] | ++ (compound exhibited 26-50% inhibition of calcium ion influx induced by proton stimulation) | 
15 | c1ccc(CN2CCc3c(ncnc3Nc3cnc4ccccc4c3)C2)cc1 [Example 38, 7-Benzyl-5,6,7,8-tetrahydro-N-(quinolin-3-yl)pyrido[3,4-d]pyrimidin-4-amine] |  | 101 to 500
16 | Clc1ccc(CCNc2ncnc3c2CCN(c2ncccc2Cl)C3)cc1 [Example 40, N-(4-Chlorophenethyl)-7-(3-chloropyridin-2-yl)-5,6,7,8-tetrahydropyrido[3,4-d]pyrimidin-4-amine] | +++ (compound exhibited 51-75% inhibition of calcium ion influx induced by proton stimulation) | > 1000
17 | Clc1ccc(CNc2ncnc3c2CCN(c2ncccc2Cl)C3)cc1 [Example 41, N-(4-Chlorobenzyl)-7-(3-chloropyridin-2-yl)-5,6,7,8-tetrahydropyrido[3,4-d]pyrimidin-4-amine] | ++ (compound exhibited 26-50% inhibition of calcium ion influx induced by proton stimulation) | 101 to 500
18 | Clc1ccc(Nc2ncnc3c2CCN(c2ncccc2Cl)C3)cc1Cl [Example 42, N-(3,4-Dichlorophenyl)-7-(3-chloropyridin-2-yl)-5,6,7,8-tetrahydropyrido[3,4-d]pyrimidin-4-amine] | ++ (compound exhibited 26-50% inhibition of calcium ion influx induced by proton stimulation) | 
19 | FC(F)(F)c1ccc(Nc2ncnc3c2CCN(c2ccccc2)C3)cc1 [Example 44, 7-(Phenyl)-N-(4-(trifluoromethyl)phenyl)-5,6,7,8-tetrahydropyrido[3,4-d]pyrimidin-4-amine] | + (compound exhibited 0-25% inhibition of calcium ion influx induced by proton stimulation) | > 1000
20 | Cc1ccc(N2CCc3c(ncnc3Nc3ccc(C(F)(F)F)cc3)C2)cc1 [Example 47, 7-(p-Tolyl)-N-(4-(trifluoromethyl)phenyl)-5,6,7,8-tetrahydropyrido[3,4-d]pyrimidin-4-amine] | ++ (compound exhibited 26-50% inhibition of calcium ion influx induced by proton stimulation) | 501 to 1000
21 | CC(C)(C)c1ccc(Nc2ncnc3c2CCN(c2ncccc2Cl)C3)cn1 [Example 49, N-(6-tert-Butylpyridin-3-yl)-7-(3-chloropyridin-2-yl)-5,6,7,8-tetrahydropyrido[3,4-d]pyrimidin-4-amine] | ++++ (compound exhibited 76% or greater inhibition of calcium ion influx induced by proton stimulation) | 
22 | FC(F)(F)c1cccc(CCNc2ncnc3c2CCN(c2ncccc2Cl)C3)c1 [Example 50, N-(3-(Trifluoromethyl)phenethyl)-7-(3-chloropyridin-2-yl)-5,6,7,8-tetrahydropyrido[3,4-d]pyrimidin-4-amine] | + (compound exhibited 0-25% inhibition of calcium ion influx induced by proton stimulation) | 
23 | Clc1cccnc1N1CCc2c(ncnc2NCCCc2ccccc2)C1 [Example 51, 7-(3-Chloropyridin-2-yl)-5,6,7,8-tetrahydro-N-(3-phenylpropyl)pyrido[3,4-d]pyrimidin-4-amine] | + (compound exhibited 0-25% inhibition of calcium ion influx induced by proton stimulation) | 
24 | Clc1cccnc1N1CCc2c(ncnc2NCCOc2ccccc2)C1 [Example 52, 7-(3-Chloropyridin-2-yl)-5,6,7,8-tetrahydro-N-(2-phenoxyethyl)pyrido[3,4-d]pyrimidin-4-amine] | + (compound exhibited 0-25% inhibition of calcium ion influx induced by proton stimulation) | 
25 | CC(C)(C#N)c1ccc(Nc2ncnc3c2CCN(c2ncccc2Cl)C3)cc1 [Example 56, 2-(4-(7-(3-Chloropyridin-2-yl)-5,6,7,8-tetrahydropyrido[3,4-d]pyrimidin-4-ylamino)phenyl)-2-methylpropanenitrile] | ++++ (compound exhibited 76% or greater inhibition of calcium ion influx induced by proton stimulation) | < 100
